Columns and labels:
Format in all cases: cell-based
[1] = test system: bacteria contaminating yeast cream; test: Bacterial plate counts of yeast cream in industrial scale operation before and after treatment
Protocol: A volume of 100,000 L whole fermentation broth was separated into a beer fraction and a yeast cream after completion of the fermentation. The yeast cream was concentrated to approximately 170 g dry cell weight/L. Prior to recycle into the next fermentation batch, the yeast cream contaminated with bacteria was treated at 20° C. with acid alone (batch 1) or treated with acid in combination with chlorine dioxide (batch 2). […] Chlorine dioxide was generated in concentrated form at a nominal concentration of 2700 ppm using a system commercially available from Pureline, Palatine, Ill. In the combination treatment, the acidity of the yeast cream was first lowered to pH 2.0 (as per Example 1.1) and subsequently treated at a bolus dose of 200 ppm chlorine dioxide with a residence time of approximately 45 seconds. After treatment, the yeast cream was fed back into the fermentation.

[2] = test system: Saccharomyces cerevisiae yeast strain; test: Yeast cell counts (viability) of yeast cream after acid and/or chlorine dioxide treatment
Protocol: A sample of the yeast cream from Example 1.1 was plated for yeast growth after the treatments outlined therein. […] Selective yeast growth was enabled by serially diluting the cream in sterile saline (0.9% NaCl w/v) and plating on YM plates (10 g/L glucose, 5 g/L peptone, 3 g/L yeast extract, 3 g/L malt extract, 20 g/L agar) containing 34 mg/L chloramphenicol to inhibit bacterial growth.

[3] = test system: bacteria that proliferated in the industrial fermentation (contaminated yeast cream); test: Bacterial plate counts of contaminated yeast cream after acid and/or chlorine dioxide treatment (lab scale, Examples 1.1 and 1.2); conditions: for reduction of bacterial population: yeast cream first lowered to pH 2.0 with sulfuric acid, 5 minutes
Protocol: A yeast cream (also referred to herein as a “yeast slurry”) separated from the fermentation broth and contaminated with bacteria that proliferated in the industrial fermentation was treated at 20° C. with acid alone, chlorine dioxide alone or a combination of the two. In the acid treated condition, the pH was lowered from 5.0 to 2.0 with sulfuric acid. In the chlorine dioxide treated condition, a concentrated stock of chlorine dioxide in water (10,000 ppm) was prepared by passing a mixture of chlorine and nitrogen gas through sodium chlorite columns. The resulting ClO2 gas was sparged into 4 L of cold de-ionized water until the desired concentration was reached. This chlorine dioxide solution was used to treat the yeast cream.
In the combination treatment, the yeast cream was first lowered to pH 2.0 with sulfuric acid for 5 minutes and subsequently treated with the indicated bolus dose of chlorine dioxide for 5 minutes. In cases where the pH was lowered, the yeast cream was titrated back to 5.0 with sodium hydroxide after 10 minutes and prior to plating for bacterial enumeration. The duration of acid exposure was limited to 10 minutes to match the duration of exposure for the other treatments.
Bacterial colonies were enumerated via standard plate count methods. In order to selectively plate bacterial colonies and inhibit yeast growth, tryptic soy agar plates (15 g/L pancreatic digest of casein, 5 g/L enzymatic digest of soybean meal, 5 g/L sodium chloride and 15 g/L agar) with 100 mg/L cycloheximide were used. Samples were serially diluted into sterile saline (0.9% NaCl w/v) prior to plating.
Contaminated yeast cream obtained from the fermentation of Example 1.1 was titrated to pH 2.0 with sulfuric acid, treated with various concentrations of chlorine dioxide (0, 50, 100, 150 and 200 ppm) and plated to determine the bacterial reduction at pH 2.0 as outlined above, with the exception that the temperature of the treatment was 30° C. rather than 20° C. Bacterial populations were enumerated as previously described (Example 1.1). Bacterial populations were also enumerated on a control sample that was not subjected to chlorine dioxide or pH titration.

[4] = test system: contaminated yeast cream (Saccharomyces cerevisiae yeast strain with bacterial contaminants); test: Yeast fermentation performance in lignocellulosic hydrolysate after treatment of contaminated yeast cream
Protocol: Yeast fermentation performance was evaluated by inoculating the contaminated control yeast, acid-treated yeast and combination acid-chlorine dioxide treated yeast creams (treated as set forth in Example 1.1) into 400 mL of lignocellulosic hydrolysate. The lignocellulosic hydrolysate was produced as set forth in Example 1.1. Prior to inoculation, the media was sparged with pure CO2 for two minutes to ensure anaerobicity. Cells were allowed to ferment at 30° C., 150 rpm until sugar exhaustion. CO2 production was monitored for the course of the fermentation and samples were taken for dry cell weight and HPLC analysis.
The samples were analyzed for cell mass using dry cell weight (Rice et al. (1980) Am. Soc. Brew. Chem. J. 38:142-45, which is incorporated herein by reference). For the fermentability analysis, samples were taken from the bioreactors using a 10 mL syringe. From each sample, cells in 2 mL culture samples were pelleted by centrifugation and the supernatant decanted and filtered through a 0.2 μm syringe filter. Each supernatant sample was diluted with 5 mM sulfuric acid. All dilutions were analyzed for glucose, xylose, xylitol, glycerol, and ethanol content on the Agilent 1100 Series Refractive Index Detector HPLC, while acetic and lactic acid were analyzed concurrently using an Agilent 1200 Series Variable Wavelength Detector HPLC. The column used for separation was the Varian Metacarb 87H Organic Acid column, maintained at 50° C. with a 5 mM sulfuric acid mobile phase at a flow rate of 0.6 mL/min. The unit was equipped with the 1100 Series Auto-sampler and Pumping System and controlled with the Chemstation software.

`O=S(=O)(O)O` [sulfuric acid] was tested. Which “reduction of bacterial contamination counts” value ([1]; sulfuric acid alone to pH 2.0, 20° C., industrial scale (batch 1)) did it give?
The value was 10^2 CFU/mL.

What about the “viability of the fermentation yeast culture” value ([2]; acid treatment alone, pH 2, 20° C.) of the same compound?
The value was “not affected”.

And the “reduction of bacterial population by acid alone (pH control)” value ([3]; pH 2.0, no chlorine dioxide, 30° C.)?
The value was “did not reduce”.

And the “reduction of bacterial population by lowering the pH alone” value ([3]; pH 2.0 with sulfuric acid, 0 ppm chlorine dioxide, 20° C., 10 minutes)?
Its value is “does not significantly reduce”.

What about the ethanol yield ([4]; acid treatment alone (pH 2) versus untreated control) of the same compound?
The ethanol yield was “increase”.

And the “xylose consumption rate in lignocellulosic hydrolysate” value ([4]; acid treatment alone (pH 2) versus untreated control, equivalent cell concentrations, 30° C.)?
The value was “relative decrease”.

For `[O][Cl+][O-]` [chlorine dioxide], which “decrease of bacterial contamination counts” value ([1]; pH 2.0 with sulfuric acid then 200 ppm chlorine dioxide, about 45 seconds, 20° C., industrial scale (batch 2)) is on record?
The value was 10^4 CFU/mL.

And the “effect of increasing chlorine dioxide dose on fermentation yeast populations” value ([2]; 0, 200, 500 ppm, regardless of the pH of the treatment (pH 5 or pH 2))?
Its value is “negligible effect”.

What about the “viability of the fermentation yeast culture” value ([2]; combination of acid (pH 2) and chlorine dioxide 200 and 500 ppm, 20° C.) of the same compound?
The value was “not affected”.

And the “reduction of contamination in yeast cream” value ([3]; 100 ppm chlorine dioxide, pH 2, 30° C.)?
Its value is 10^2 CFU/mL.

And the “decrease of bacterial counts” value ([3]; 200 ppm chlorine dioxide, pH 2, 30° C.)?
The value was “greater than 10^5 CFU/mL”.

What about the “reduction of bacterial population” value ([3]; 200 ppm chlorine dioxide, 20° C.) of the same compound?
The value was 10^2 CFU/mL.

And the “reduction of bacterial counts” value ([3]; 500 ppm chlorine dioxide, room temperature, as restated in Example 1.2 (see FIG. 2))?
Its value is 100 fold.

And the “reduction of bacterial population” value ([3]; 500 ppm chlorine dioxide, 20° C.)?
The value was 10^3 CFU/mL.

What about the “effect of increasing chlorine dioxide dose on bacterial populations” value ([3]; pH 5.0, 0, 200 and 500 ppm, 20° C., no acid) of the same compound?
Its value is “negligible effect”.

And the “xylose consumption rate in lignocellulosic hydrolysate” value ([4]; combination acid-chlorine dioxide treatment (pH 2, 200 and 500 ppm) versus untreated control, change greater than with acid alone)?
Its value is “relative decrease”.

What about the ethanol yield ([4]; combination acid-chlorine dioxide treatment versus untreated control, change greater than with acid alone) of the same compound?
Its ethanol yield is “increase”.

— US8759049B2, “Method for the production of a fermentation product from a sugar hydrolysate” (Iogen Energy Corporation, priority 2010, dated 2014)
